Experimental data published in US20060211606A1, “Peptides” (priority 2005, published 2006).
Where no end group is shown, it is not given here. [ ]: non-standard residue; d: D form.

Test system: Human Skeletal Muscle Myoblasts (HSMM)
Experiment: HSMM proliferation, BrdU incorporation
Type: cell-based
Details: 48 hours
Description: (A) Peptide A5: HSMM cells at 500 cells/well. Cultivation was carried out for 24 hours in 10% FCS, followed by two washes in serum free medium, stimulation for 48 hours and then treatment with BrdU for 5 hours. Concentrations of 0.1, 1, 10, 100 and 500 ng/ml of peptide A5 were tested, along with 0.1, 1, 10 and 100 ng/ml IGF-I. BrdU incorporation was measured to assess the level of cell proliferation achieved. Controls containing medium only, no cells (BLK), background staining (BG) and 10% FBS were also provided. Values on the Y-axis are for fluorescence (absorbence at 370 nm; mean plus standard error across 4 wells). The first five columns relate to peptide A5 at concentrations of 0.1, 1, 10, 100 and 500 ng/ml. The next column relates to the control containing medium only. The next three relate to IGF-I (See Example 1.5) alone at concentrations of 100, 10 and 0.1 ng/ml. The next three relate to controls containing 10% FBS, background staining and no cells respectively. * means P<0.05 compared to medium only control.
(B) Peptide AS: HSMM cells at 500 cells/well. […] Concentrations of 0.1, 1, 10, 100 and 500 ng/ml of peptide AS in combination with 2 ng/ml IGF-I were tested, along with 0.1, 1, 10 and 100 ng/ml IGF-I. BrdU incorporation was measured to assess the level of cell proliferation achieved. […] Values on the Y-axis are for fluorescence (absorbence at 370 nm; mean plus standard error across 4 wells). […]
(A) Peptide AS: HSMM cells at 500 cells/well. […] Concentrations of 0.1, 1, 10, 100 and 500 ng/ml of peptide AS were tested, along with 0.1, 1, 10 and 100 ng/ml IGF-I. BrdU incorporation was measured to assess the level of cell proliferation achieved. […] Values on the Y-axis are for fluorescence (absorbence at 370 nm; mean plus standard error across 4 wells). […]
(B) Peptide A5: HSMM cells at 500 cells/well. […] Concentrations of 0.1, 1, 10, 100 and 500 ng/ml of peptide AS in combination with 2 ng/ml IGF-I were tested, along with 0.1, 1, 10 and 100 ng/ml IGF-I. BrdU incorporation was measured to assess the level of cell proliferation achieved. […]

A5: SEQ ID NO: 15 with D-Arginine at positions 14 and 15, amidated at the C-terminus, not pegylated (YQPPSTNKNTKSQ[dR][dR]KGSTFEEHK-NH2; N-terminus assumed; SMILES C[C@@H](O)[C@H](NC(=O)[C@H](CO)NC(=O)CNC(=O)[C@H](CCCCN)NC(=O)[C@@H](CCCNC(=N)N)NC(=O)[C@@H](CCCNC(=N)N)NC(=O)[C@H](CCC(N)=O)NC(=O)[C@H](CO)NC(=O)[C@H](CCCCN)NC(=O)[C@@H](NC(=O)[C@H](CC(N)=O)NC(=O)[C@H](CCCCN)NC(=O)[C@H](CC(N)=O)NC(=O)[C@@H](NC(=O)[C@H](CO)NC(=O)[C@@H]1CCCN1C(=O)[C@@H]1CCCN1C(=O)[C@H](CCC(N)=O)NC(=O)[C@@H](N)Cc1ccc(O)cc1)[C@@H](C)O)[C@@H](C)O)C(=O)N[C@@H](Cc1ccccc1)C(=O)N[C@@H](CCC(=O)O)C(=O)N[C@@H](CCC(=O)O)C(=O)N[C@@H](Cc1c[nH]cn1)C(=O)N[C@@H](CCCCN)C(N)=O) [Peptide A5]
proliferation of HSMM (BrdU incorporation), with 2 ng/ml IGF-I in the medium (A5 in combination with 2 ng/ml IGF-I, P<0.001): significant effect on the proliferation of HSMM at a higher confidence level
proliferation of HSMM (BrdU incorporation), used in isolation (A5 significant (P<0.1) at doses of 10 ng/ml and below, IGF-I alone 0.1, 10 and 100 ng/ml): significant effect
